Experimental data from patent US8084589B2, “Phosphoramidite nucleoside analogs” (University of Massachusetts, priority 2007, dated 2011).
Strand notation (5' to 3'): a small letter for the sugar, then the base; units joined by * are phosphorothioate-linked, units joined directly phosphodiester-linked; [ ] holds rarer units or linkages, { } end groups; capitals alone tell only the bases. [TEGam] = internucleoside phosphate triester carrying a triethylene glycol amino linker (free amine, native form); {Y} = hydroxypropyldithiopropyl phosphate linker, HOCH2CH2SSCH2CH2CH2O-P(O)(OH)-; d = 2'-deoxy (DNA)

Tests used:
[1] = Storage stability of synthon 2 (coupling efficiency on the synthesizer); format: physicochemical; settings: for coupling yield of the monomer: in anhydrous acetonitrile at room temperature, 3 minutes coupling
Experimental: Usually the compound was dissolved in anhydrous acetonitrile under argon and was kept on the synthesizer for up to two weeks at room temperature. The coupling yield of the monomer for the 3 minutes coupling duration was 98-99% after 7-8 days, and for the same coupling conditions coupling yield decreased to 90% after additional 10-12 days. Coupling yields were assessed using a DMTr detector reading on the synthesizer.

[2] = Storage stability of oligonucleotide conjugate in water (HPLC); format: physicochemical; settings: deionized water, −20° C., approximately four months
Experimental: A limited stability study of one of the novel oligonucleotide conjugates, VIII, which contained 800CW dye at the 8th nucleoside from the 5′-end (see Table 2), was performed.

[3] = Melting temperature of oligonucleotide duplexes (UV, FRET loss or dequenching); format: physicochemical; settings: for Melting point, ° C, method: Table 5, method UV
Experimental: Watson-Crick base paring properties of the modified oligonucleotides were evaluated by comparison of melting temperatures of a duplex formed between the amino-functionalized oligonucleotide CGG AAA GT*C CCT CAT AGC T (I, SEQ ID NO: 1) and its complementary unmodified oligonucleotide 3′[…] 5′ (Duplex 1, SEQ ID NO:5) and a control, unmodified duplex with the same sequence (Duplex 2). The melting temperatures were almost equal, i.e. 65 and 66° C. for Duplexes 1 and 2, respectively.
The conjugates were characterized by HPLC analysis, mass spectrometry and UV/VIS spectroscopy. Briefly, spectral measurements were performed using a Cary 50 Bio UV-visible spectrophotometer. Melting temperatures were determined with a step-wise Peltier temperature ramping bath in 2 degree mode in a temperature-controlled cuvette holder. Electrospray mass spectrometry (MS) was performed with a LTQ Linear Ion trap mass spectrometer (Thermo, Inc) with use of a Nanomate (Advion, Inc.) robot. Spectra were obtained in the negative ion mode with 1.8 kV spray voltage and 0.8 PSI back pressure (UMMS Proteomic and Mass Spectrometry Core Facility, University of Massachusetts Medical School, Worcester, Mass.). Sample solutions were adjusted to 75% methanol before MS analysis. The full mass spectra were acquired for 30 seconds from m/z 400-2000 using 2 ms scans and 10 ms maximum injection time.
The synthesized ODN duplex probes were characterized by comparing melting temperatures of native, non-modified ODN pair to those duplexes prepared by using covalently labeled ODNs.
The FRET between Cy5.5 and the acceptor on complementary ODN was observed after Cy5.5-ODN3 was incubated with Cy7- or 800CW-linked to ODN2 (see FIGS. 20A-B). […] In the presence of internucleoside phosphate-linked Cy7 on the complementary strand it was observed more than 10 times lower fluorescence of Cy5.5 measured at 700 nm (λex=675 nm) and a 3-fold higher fluorescence of Cy7 (if compared to the duplex formed between Cy7-ODN2 and ODN3), FIGS. 20A-D. The formation of duplexes and reversible FRET effects were further studied in more detail by following sigmoidal dependence of the temperature-dependent increase of Cy5.5 fluorescence in a microcuvette of a spectrofluorometer. These experiments enabled measurement of two parameters: melting temperatures and the overall FRET efficacy (Table 5).

[4] = biological target: T1, NF-κB p50 (Homo sapiens, UniProt P19838); assay: EMSA of recombinant p50 binding to fluorescent duplexes; settings: both Cy5.5-800CW and Cy5.5-Cy7 donor/acceptor pairs
T1 sequence (P19838 1-433 limits assumed): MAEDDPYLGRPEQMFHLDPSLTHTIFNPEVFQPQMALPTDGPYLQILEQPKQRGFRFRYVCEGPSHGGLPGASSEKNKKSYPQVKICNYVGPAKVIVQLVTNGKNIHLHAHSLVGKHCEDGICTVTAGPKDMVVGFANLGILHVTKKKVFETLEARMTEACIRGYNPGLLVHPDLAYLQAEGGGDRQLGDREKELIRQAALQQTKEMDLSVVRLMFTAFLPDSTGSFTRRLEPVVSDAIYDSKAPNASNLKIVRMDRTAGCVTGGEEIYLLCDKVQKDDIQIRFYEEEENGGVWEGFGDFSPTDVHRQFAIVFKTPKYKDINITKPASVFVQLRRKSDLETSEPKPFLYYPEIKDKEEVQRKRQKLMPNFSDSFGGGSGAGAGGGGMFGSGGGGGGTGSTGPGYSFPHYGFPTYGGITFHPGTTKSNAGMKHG
Text: The binding of NF-κB p50 to duplexes was initially followed by using two methods: 1) electrophoretic mobility shift essay (EMSA) in polyacrylamide gels; 2) fluorescence energy transfer loss measurements after adding p50 to the duplex in solution. In the first case the components of the mixture are off equilibrium since the free duplex is separated due to a faster migration in electric field during the analysis. The second method afforded measurements at the equilibrium but the observed fluorescence change values are affected by the background fluorescence due to the presence of the free duplex. […] Fluorescence of both free and bound duplex could be imaged by using a transillumination scanner and CCD camera that detected emitted light at two wavelengths—[…] (FIG. 21A) and 800 nm (FIG. 21B, fused image—FIG. 21C). […] However, by comparing Cy5.5-labeled duplexes (ODN2/Cy5.5-ODN3 and ODN4/Cy5.5-ODN5) it was determined that in the case of full-length binding sites 94% of fluorescence co-migrated with p50, whereas only 63% co-migrated with ODN4/Cy5.5-ODN5 duplex (FIG. 21D) at the saturating concentrations of p50 monomer (200 nM).
The half-maximal amount of p50 was 238-300 ng (corresponding to approximately 600 nM). […] A similar trend was observed if 800CW dye was used as Cy5.5 fluorescence acceptor and the differences were also significant (p=0.02).

With `COc1ccc(C(OC[C@H]2O[C@@H](n3cc(C)c(=O)[nH]c3=O)C[C@@H]2OP(OCCOCCOCCNC(=O)C(F)(F)F)N(C(C)C)C(C)C)(c2ccccc2)c2ccc(OC)cc2)cc1` (stereo partly shown) [synthon 2, 5′-O-DMTr-thymidine-3′-O-(2-(2-(2-trifluoroacetamidoethoxy)-ethoxy)ethyl)-N,N-diisopropylphosphoramidite] the “stability in dry acetonitrile” value ([1]; dry acetonitrile, on synthesizer, room temperature) was “stable in dry acetonitrile for at least one week”, the “coupling yield of the monomer” value ([1]; after 7-8 days) was 98-99% and the “coupling yield of the monomer” value ([1]; after additional 10-12 days) was 90%. For the same molecule, the “stability of dry monomer on storage” value ([1]; stored six months at −20° C.) was “no apparent decrease in coupling efficiency”.
With CGGAAAGT^800CWCCCTCATAGCT [VIII] the “stability by HPLC analysis” value [2] was “no signs of degradation”.
With “I/XIX: non-labelled duplex of I and XIX (chain 1 dCdGdGdAdAdAdGdT[TEGam]dCdCdCdTdCdAdTdAdGdCdT; chain 2 dAdGdCdTdAdTdGdAdGdGdGdAdCdTdTdTdCdCdG-{Y})” the “Melting point, ° C., (method)” value ([3]; Table 3, method UV) was 64 (UV) ° C and the “Melting point, ° C, method” value [3] was 64 (UV) ° C.
For “ODN1/ODN3: non-labeled duplex of ODN1 and ODN3 (chain 1 CGGAAAGTCCCTCATAGCT; chain 2 dAdGdCdTdAdTdGdAdGdGdGdAdCdTdTdTdCdCdG-{Y}; chain 1: unmodified DNA) [reference compound]”, the “Melting point, ° C, method” value [3] was 66 (UV) ° C.
For “ODN4/ODN5: duplex with truncated NF-κB p50 binding site GGAAAG (chain 1 TGGAAAGCTTTTTACAGTT; chain 2 AACTGTAAAAAGCTTTCCA; listed as DNA, chemistry not fully specified)”, the “Melting point, ° C, method” value [3] was 61 (UV) ° C and the “fluorescence changes in EMSA bands on p50 binding” value [4] was “no measurably significant fluorescence changes”.
